Read-outs that look alike come from different tables or passages of the source.
Columns and labels:
[1] = biological target: T1, full-length MALT1 protein (Strep-MALT1(1-824)-His) (Homo sapiens, UniProt Q9UDY8); assay: biochemical;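 further: fluorogenic LRSR-AMC substrate cleavage by MALT1, 50 min compound preincubation then 4 h reaction at RT, 11-point dilution from 30 µM, scaled between enzyme-free and untreated enzyme controls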
T1 sequence (Q9UDY8 1-824): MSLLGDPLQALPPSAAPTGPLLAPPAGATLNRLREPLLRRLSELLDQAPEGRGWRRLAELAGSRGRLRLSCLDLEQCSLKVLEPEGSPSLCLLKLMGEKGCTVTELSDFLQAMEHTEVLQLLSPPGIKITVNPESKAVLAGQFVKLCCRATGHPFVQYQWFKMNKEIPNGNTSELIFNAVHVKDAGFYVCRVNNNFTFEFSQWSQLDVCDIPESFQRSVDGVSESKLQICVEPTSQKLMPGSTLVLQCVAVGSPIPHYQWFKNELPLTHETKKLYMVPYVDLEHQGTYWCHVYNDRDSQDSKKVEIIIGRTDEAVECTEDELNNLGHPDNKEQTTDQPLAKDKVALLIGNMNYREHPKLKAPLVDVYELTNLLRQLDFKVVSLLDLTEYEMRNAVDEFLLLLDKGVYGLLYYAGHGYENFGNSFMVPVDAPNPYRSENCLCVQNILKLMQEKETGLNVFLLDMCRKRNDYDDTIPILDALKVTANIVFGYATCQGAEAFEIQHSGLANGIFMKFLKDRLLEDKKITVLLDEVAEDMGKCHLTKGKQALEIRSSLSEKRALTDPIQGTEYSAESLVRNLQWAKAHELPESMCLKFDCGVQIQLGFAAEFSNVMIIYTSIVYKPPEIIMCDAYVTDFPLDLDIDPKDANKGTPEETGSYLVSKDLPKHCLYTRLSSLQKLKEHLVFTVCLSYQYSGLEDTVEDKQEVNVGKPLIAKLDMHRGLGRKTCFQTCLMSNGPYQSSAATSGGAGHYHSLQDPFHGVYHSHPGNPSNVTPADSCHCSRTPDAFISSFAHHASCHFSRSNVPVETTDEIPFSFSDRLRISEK
Procedure: MALT1 protease activity was assessed in an in vitro assay using a tetrapeptide as substrate and full-length MALT1 protein (Strep-MALT1(1-824)-His) purified from baculovirus-infected insect cells. The tetrapeptide LRSR is coupled to AMC (7-amino-4-methylcoumarin) and provides a quenched, fluorescent substrate for the MALT1 protease (SM Biochemicals). Cleavage of AMC from the Arginine residue results in an increase in coumarin fluorescence measured at 460 nm (excitation 355 nm). […] Test compounds were spotted at 50 nL in 100% DMSO per well of a black 384-Proxiplate (Perkin Elmer). Test compound concentrations ranged from 30 μM to 0.5 nM using 11 dilution steps (1:3). Background signal was measured from control wells containing assay buffer without enzyme which functions as low control (LC). High control (HC) values were generated using the reaction with enzyme but no compound treatment. Compounds were pre-incubated with MALT1 enzyme for 50 minutes at RT. Substrate was added subsequently and fluorescence was measured in Labsystems fluoroskan at excitation 355 nm and emission 460 nm to determine time 0. The reaction was subsequently incubated for 4 h at RT and fluorescence was measured. […] The enzyme reaction was linear during the 4 h incubation period.
IC50 values were calculated using the following formula (Z prime should be >0.5):
From this an IC50 value (inhibitory concentration causing 50% inhibition) can be obtained. An estimate of the slope of the plot in terms of the Hill coefficient was also obtained.
With y=estimated response • UB=upper bound • LB=lower bound • h=hill

[2] = tested on: Secretion of IL6 by OCI-LY3 ABC-DLBCL cells; assay: Human IL6 Mesoscale assay (OCI-LY3); type: cell-based; conditions: read-out: Human IL6 Mesoscale assay (OCI-LY3)
Procedure: (§1) NFKB signaling regulates the secretion of multiple cytokines, including IL6 and IL10. Secretion of the cytokines IL6 and IL10 by TMD8 or OCI-LY3 ABC-DLBCL cells was measured using a mesoscale assay.
(§2) Cell passage number should not exceed 30. Cells should be kept between 0.5-2.5 million cells per mL during culturing and cells should be supplemented every 2-3 days with fresh 50 µM beta-mercaptoenthanol. No beta-mercaptoethanol was used during the mesoscale assay.
(§3) DMSO control wells were used to determine the maximum signal (High Control (HC)). […] Compounds and cells were incubated for 24 h at 37° C. and 5% CO2 (assay volume is 150 μL). After 24 h of incubation 50 μL of the supernatant was transferred to a MSD plate (V-Plex Proinflammation Panel 1 (human) kit, Mesoscale (MSD)) and incubated for 2 h with vigorous shaking (600 rpm) at room temperature. Following incubation, plates were washed 3× with PBS+0.05% Tween-20 and 25 μL detection antibody solution (IL6 & IL10 antibodies in diluent 3 (MSD)) was added per well followed by 2 h of incubation with vigorous shaking (600 rpm) at room temperature. After 3× washes with PBS+0.05% Tween-20, plates were incubated with 150 μL 2× Read Buffer T and read on SECTOR imager.

[3] = tested on: Secretion of IL10 by OCI-LY3 ABC-DLBCL cells; assay: Human IL10 Mesoscale assay (OCI-LY3); type: cell-based; conditions: read-out: Human IL10 Mesoscale assay (OCI-LY3)
Procedure: as §1, §2, §3

[4] = OCI-LY3 cells, 24 h incubation, supernatant, MSD V-Plex

| IC50 [1] [nM] | IC50 [2, 4] [nM] | IC50 [3, 4] [nM] | IC50 ([2]; OCI-Ly3, 24 h) [nM] | IC50 ([3]; OCI-Ly3, 24 h) [nM] | SMILES |
| --- | --- | --- | --- | --- | --- |
| 234 | 490 | 389 | – | – | Cc1nc(-n2nccn2)c(C#N)cc1NC(=O)c1cnn(-c2ccc(F)c(N)n2)c1C(F)(F)F [Cpd 182, 1-(6-amino-5-fluoropyridin-2-yl)-N-(5-cyano-2-methyl-6-(2H-1,2,3-triazol-2-yl)pyridin-3-yl)-5-(trifluoromethyl)-1H-pyrazole-4-carboxamide] |
| 282 | 269 | 195 | – | – | Nc1ccc(Cl)c(-n2ncc(C(=O)Nc3cnc(-n4nccn4)c(Cl)c3)c2C(F)(F)F)n1 [Cpd 183, 1-(6-amino-3-chloropyridin-2-yl)-N-(5-chloro-6-(2H-1,2,3-triazol-2-yl)pyridin-3-yl)-5-(trifluoromethyl)-1H-pyrazole-4-carboxamide] |
| 100 | 427 | 407 | – | – | Cc1ccc(N)nc1-n1ncc(C(=O)Nc2cnc(-n3nccn3)c(C#N)c2)c1C(F)(F)F [Cpd 141, 1-(6-amino-3-methylpyridin-2-yl)-N-(5-cyano-6-(2H-1,2,3-triazol-2-yl)pyridin-3-yl)-5-(trifluoromethyl)-1H-pyrazole-4-carboxamide] |
| 107 | – | – | 195 | 158 | Cc1cc(F)c(N)nc1-n1ncc(C(=O)Nc2cnc(-n3nccn3)c(Cl)c2)c1C(F)(F)F [Cpd 146, 1-(6-amino-5-fluoro-3-methylpyridin-2-yl)-N-(5-chloro-6-(2H-1,2,3-triazol-2-yl)pyridin-3-yl)-5-(trifluoromethyl)-1H-pyrazole-4-carboxamide] |
| 204 | 676 | 324 | – | – | Cc1nc(-n2nccn2)c(Cl)cc1NC(=O)c1cnn(-c2ccc(F)c(N)n2)c1C(F)(F)F [Cpd 179, 1-(6-amino-5-fluoropyridin-2-yl)-N-(5-chloro-2-methyl-6-(2H-1,2,3-triazol-2-yl)pyridin-3-yl)-5-(trifluoromethyl)-1H-pyrazole-4-carboxamide] |
| 302 | 251 | 182 | – | – | N#Cc1cc(NC(=O)c2cnn(-c3nc(Cl)ccc3Cl)c2C(F)(F)F)cnc1-n1nccn1 [Cpd 162, N-(5-cyano-6-(2H-1,2,3-triazol-2-yl)pyridin-3-yl)-1-(3,6-dichloropyridin-2-yl)-5-(trifluoromethyl)-1H-pyrazole-4-carboxamide] |
| 74 | 78 | 46 | – | – | Cc1c(-n2ncc(C(=O)Nc3cnc(-n4nccn4)c(C#N)c3)c2C(F)(F)F)ccc(F)c1F [Cpd 168, N-(5-cyano-6-(2H-1,2,3-triazol-2-yl)pyridin-3-yl)-1-(3,4-difluoro-2-methylphenyl)-5-(trifluoromethyl)-1H-pyrazole-4-carboxamide] |
| 141 | 158 | 112 | – | – | O=C(Nc1cnc(-n2nccn2)c(Cl)c1)c1cnn(-c2ccc(F)cc2Cl)c1C(F)(F)F [Cpd 107, 1-(2-chloro-4-fluorophenyl)-N-(5-chloro-6-(2H-1,2,3-triazol-2-yl)pyridin-3-yl)-5-(trifluoromethyl)-1H-pyrazole-4-carboxamide] |
| 91 | 105 | 76 | – | – | N#Cc1ccc(-n2ncc(C(=O)Nc3cnc(-n4nccn4)c(C#N)c3)c2C(F)(F)F)cc1 [Cpd 169, N-(5-cyano-6-(2H-1,2,3-triazol-2-yl)pyridin-3-yl)-1-(4-cyanophenyl)-5-(trifluoromethyl)-1H-pyrazole-4-carboxamide] |
| 69 | 54 | 41 | – | – | Cc1c(F)cccc1-n1ncc(C(=O)Nc2cnc(-n3nccn3)c(C#N)c2)c1C(F)(F)F [Cpd 167, N-(5-cyano-6-(2H-1,2,3-triazol-2-yl)pyridin-3-yl)-1-(3-fluoro-2-methylphenyl)-5-(trifluoromethyl)-1H-pyrazole-4-carboxamide] |

— US11040031B2, “Pyrazole derivatives as MALT1 inhibitors” (Janssen Pharmaceutica NV, priority 2018, dated 2021)
